Measurements: patent publication US20260217701A1, “SELECTIVE BET INHIBITORS AND USES THEREOF” (Tay Therapeutics Limited, priority 2022, published 2026)
Marks after values point to notes of the source that are not given here.

Test: EAE study: body weight
Assay type: in vivo, C57BI/6 mice
Details: for Mean Body Weight Change (% of Day −1): mean end body weight
Protocol: Experimental Method H: EAE in animals treated with a BET inhibitor and vehicle. Animals were assigned to the groups outlined in Table 38.
Compound A may be formulated as illustrated in Experimental Method A (see Table 2E.). A 40 mg/mL stock solution of Compound A in DMSO was prepared and aliquots stored at −20° C. On each day of preparation an e.g., 0.75 mL aliquot of thawed stock was diluted with an equal volume of DMSO. The remaining vehicle components were added to provide the highest dose and then diluted with vehicle to provide lower doses. A 30 mg/mL stock solution of FTY720 in ethanol was prepared and stored at −20° C. Daily, the stock solution was diluted with room temperature water to a final dosing concentration of 0.6 mg/mL. Formulated Compound A, FTY720 and vehicle were each at room temperature for dosing.
Female C57BI/6 mice (9 weeks old) were acclimated for seven days prior to study initiation. On Day-1, animals were assigned to groups in a balanced manner to achieve similar average weights across the different groups. Chronic EAE was induced in female C57BI/6 mice following immunization with an emulsion of MOG35-55/CFA on Day 0, followed by an injection of pertussis toxin two hours after the initial immunization. On Day 1, a second injection of pertussis toxin was administered 24 hours after the initial immunization. Mice were injected subcutaneously at two sites on the back with the MOG35-55/CFA emulsion (Hooke Kit™ MOG35-55/CFA Emulsion PTX). The first injection site was located approximately 1 cm caudal of the neckline (upper back), and the second injection site was approximately 2 cm cranial of the base of the tail (lower back). The injection volume was 0.1 mL for each injection. The pertussis toxin was administered at the described times through intraperitoneal injection at a concentration of 85 ng/dose for both injections.
Body weight was measured three times a week (Monday, Wednesday, and Friday) starting on Day-1. Animals were scored daily for EAE starting on Day 7. In-between scores were assigned when the clinical signs fell between two below defined scores.

[1] = Compound A 1 mg/kg (Group 2), Day 0
[2] = Compound A 1 mg/kg (Group 2), Day 2
[3] = Compound A 1 mg/kg (Group 2), Day 5
[4] = Compound A 1 mg/kg (Group 2), Day 7
[5] = Compound A 1 mg/kg (Group 2), Day 9
[6] = Compound A 1 mg/kg (Group 2), Day 12
[7] = Compound A 1 mg/kg (Group 2), Day 14
[8] = Compound A 1 mg/kg (Group 2), Day 16
[9] = Compound A 1 mg/kg (Group 2), Day 19
[10] = Compound A 1 mg/kg (Group 2), Day 21
[11] = Compound A 1 mg/kg (Group 2), Day 23
[12] = Compound A 1 mg/kg (Group 2), Day 27
[13] = Compound A 1 mg/kg (Group 2), Day 28
[14] = Compound A 1 mg/kg (Group 2), Day −1
[15] = Compound A 3 mg/kg (Group 3), Day 0
[16] = Compound A 3 mg/kg (Group 3), Day 2
[17] = Compound A 3 mg/kg (Group 3), Day 5
[18] = Compound A 3 mg/kg (Group 3), Day 7
[19] = Compound A 3 mg/kg (Group 3), Day 9
[20] = Compound A 3 mg/kg (Group 3), Day 12
[21] = Compound A 3 mg/kg (Group 3), Day 14
[22] = Compound A 3 mg/kg (Group 3), Day 16
[23] = Compound A 3 mg/kg (Group 3), Day 19
[24] = Compound A 3 mg/kg (Group 3), Day 21
[25] = Compound A 3 mg/kg (Group 3), Day 23
[26] = Compound A 3 mg/kg (Group 3), Day 27
[27] = Compound A 3 mg/kg (Group 3), Day 28
[28] = Compound A 3 mg/kg (Group 3), Day −1
[29] = Compound A 10 mg/kg (Group 4), Day 0
[30] = Compound A 10 mg/kg (Group 4), Day 2
[31] = Compound A 10 mg/kg (Group 4), Day 5
[32] = Compound A 10 mg/kg (Group 4), Day 7
[33] = Compound A 10 mg/kg (Group 4), Day 9
[34] = Compound A 10 mg/kg (Group 4), Day 12
[35] = Compound A 10 mg/kg (Group 4), Day 14
[36] = Compound A 10 mg/kg (Group 4), Day 16
[37] = Compound A 10 mg/kg (Group 4), Day 19
[38] = Compound A 10 mg/kg (Group 4), Day 21
[39] = Compound A 10 mg/kg (Group 4), Day 23
[40] = Compound A 10 mg/kg (Group 4), Day 27
[41] = Compound A 10 mg/kg (Group 4), Day 28
[42] = Compound A 10 mg/kg (Group 4), Day −1

What does the source list for `Cn1cc(-c2ccccc2)c(-c2cn(C)c(=O)c3[nH]c(-c4cnn(C(F)(F)F)c4)cc23)cc1=O` [Compound A, 6-methyl-4-(1-methyl-2-oxo-5-phenyl-1,2-dihydropyridin-4-yl)-2-(1-(trifluoromethyl)-1H-pyrazol-4-yl)-1,6-dihydro-7H-pyrrolo[2,3-c]pyridin-7-one]?
Relative end weight (% of the mean Day-1 weight) (1 mg/kg): 100.7%; Relative end weight (% of the mean Day-1 weight) (3 mg/kg): 103%; Relative end weight (% of the mean Day-1 weight) (10 mg/kg): 106%; Mean Body Weight [1]: 20.3 g; Mean Body Weight (% of Day −1) [1]: 100.7 % of Day −1; Mean Body Weight [2]: 19.8 g; Mean Body Weight (% of Day −1) [2]: 98.4 % of Day −1; Mean Body Weight [3]: 20.0 g; Mean Body Weight (% of Day −1) [3]: 99.0 % of Day −1; Mean Body Weight [4]: 20.1 g; Mean Body Weight (% of Day −1) [4]: 99.8 % of Day −1; Mean Body Weight [5]: 21.4 g; Mean Body Weight (% of Day −1) [5]: 105.3 % of Day −1; Mean Body Weight [6]: 20.7 g; Mean Body Weight (% of Day −1) [6]: 102.1 % of Day −1; Mean Body Weight [7]: 19.9 g; Mean Body Weight (% of Day −1) [7]: 98.4 % of Day −1; Mean Body Weight [8]: 19.4 g; Mean Body Weight (% of Day −1) [8]: 95.7 % of Day −1; Mean Body Weight [9]: 19.6 g; Mean Body Weight (% of Day −1) [9]: 96.8 % of Day −1; Mean Body Weight [10]: 20.3 g; Mean Body Weight (% of Day −1) [10]: 99.9 % of Day −1; Mean Body Weight [11]: 20.7 g; Mean Body Weight (% of Day −1) [11]: 102.0 % of Day −1; Mean Body Weight [12]: 20.4 g; Mean Body Weight (% of Day −1) [12]: 100.4 % of Day −1; Mean Body Weight [13]: 20.4 g; Mean Body Weight (% of Day −1) [13]: 100.7 % of Day −1; Mean Body Weight [14]: 20.1 g; Mean Body Weight (% of Day −1) [14]: 100.0 % of Day −1; Mean Body Weight Change (% of Day −1) (Compound A 1 mg/kg): 100.7* % of Day −1; Mean Body Weight [15]: 20.3 g; Mean Body Weight (% of Day −1) [15]: 100.6 % of Day −1; Mean Body Weight [16]: 19.5 g; Mean Body Weight (% of Day −1) [16]: 96.7 % of Day −1; Mean Body Weight [17]: 19.6 g; Mean Body Weight (% of Day −1) [17]: 97.2 % of Day −1; Mean Body Weight [18]: 20.2 g; Mean Body Weight (% of Day −1) [18]: 100.0 % of Day −1; Mean Body Weight [19]: 20.5 g; Mean Body Weight (% of Day −1) [19]: 101.6 % of Day −1; Mean Body Weight [20]: 20.6 g; Mean Body Weight (% of Day −1) [20]: 102.1 % of Day −1; Mean Body Weight [21]: 20.0 g; Mean Body Weight (% of Day −1) [21]: 99.5 % of Day −1; Mean Body Weight [22]: 19.5 g; Mean Body Weight (% of Day −1) [22]: 96.9 % of Day −1; Mean Body Weight [23]: 19.5 g; Mean Body Weight (% of Day −1) [23]: 97.0 % of Day −1; Mean Body Weight [24]: 20.3 g; Mean Body Weight (% of Day −1) [24]: 101.5 % of Day −1; Mean Body Weight [25]: 20.8 g; Mean Body Weight (% of Day −1) [25]: 103.9 % of Day −1; Mean Body Weight [26]: 20.4 g; Mean Body Weight (% of Day −1) [26]: 101.8 % of Day −1; Mean Body Weight [27]: 20.6 g; Mean Body Weight (% of Day −1) [27]: 103.0 % of Day −1; Mean Body Weight [28]: 20.2 g; Mean Body Weight (% of Day −1) [28]: 100.0 % of Day −1; Mean Body Weight Change (% of Day −1) (Compound A 3 mg/kg): 103.0*** % of Day −1; Mean Body Weight [29]: 20.5 g; Mean Body Weight (% of Day −1) [29]: 101.1 % of Day −1; Mean Body Weight [30]: 19.8 g; Mean Body Weight (% of Day −1) [30]: 97.9 % of Day −1; Mean Body Weight [31]: 20.0 g; Mean Body Weight (% of Day −1) [31]: 98.9 % of Day −1; Mean Body Weight [32]: 20.4 g; Mean Body Weight (% of Day −1) [32]: 101.0 % of Day −1; Mean Body Weight [33]: 20.6 g; Mean Body Weight (% of Day −1) [33]: 101.9 % of Day −1; Mean Body Weight [34]: 20.2 g; Mean Body Weight (% of Day −1) [34]: 99.9 % of Day −1; Mean Body Weight [35]: 19.6 g; Mean Body Weight (% of Day −1) [35]: 97.2 % of Day −1; Mean Body Weight [36]: 19.1 g; Mean Body Weight (% of Day −1) [36]: 94.7 % of Day −1; Mean Body Weight [37]: 20.0 g; Mean Body Weight (% of Day −1) [37]: 99.1 % of Day −1; Mean Body Weight [38]: 20.7 g; Mean Body Weight (% of Day −1) [38]: 102.3 % of Day −1; Mean Body Weight [39]: 21.1 g; Mean Body Weight (% of Day −1) [39]: 104.2 % of Day −1; Mean Body Weight [40]: 21.0 g; Mean Body Weight (% of Day −1) [40]: 104.0 % of Day −1; Mean Body Weight [41]: 21.4 g; Mean Body Weight (% of Day −1) [41]: 106.0 % of Day −1; Mean Body Weight [42]: 20.2 g; Mean Body Weight (% of Day −1) [42]: 100.0 % of Day −1; Mean Body Weight Change (% of Day −1) (Compound A 10 mg/kg): 106.0*** % of Day −1
